For assay [1], the target named is KRas G12D (Homo sapiens, UniProt P01116, G12D). The assay is described as follows: biochemical. The settings on record: Binding to KRas (IC50 nM) G12D, TR-FRET displacement, KRas G12D. In general terms: Time-resolved FRET reads energy transfer from a long-lived donor to a nearby acceptor.
In assay [2] the target is KRas G12V (Homo sapiens, UniProt P01116, G12V). The assay is described as follows: biochemical. The settings on record: Binding to KRas (IC50 nM) G12V, TR-FRET displacement, KRas G12V.
Assay [3] relates to A549 cells. Description: Inhibition of KRas-mediated phosphorylation of ERK (Cisbio HTRF pERK), A549 cells. The assay is classed as cell-based. The settings on record: Homo sapiens; for inhibition at 0.1 µM: single point at 100 nM, 3 hrs compound incubation.
The test system of assay [4] is H460 cells. The assay is described as follows: Inhibition of KRas-mediated phosphorylation of ERK (Cisbio HTRF pERK), H460 cells. It counts as cell-based. The settings on record: Homo sapiens; for inhibition at 0.1 µM: NCI-H460, single point at 100 nM, 3 hrs compound incubation.
The subject of assay [5] is ASPC1 cells. The assay is described as follows: Inhibition of KRas-mediated phosphorylation of ERK (Cisbio HTRF pERK), ASPC1 cells. It counts as cell-based. The following applies: Homo sapiens, ASPC1, 3 h, AsPC-1 cells; 3 hr compound incubation; Cisbio pERK HTRF.
The subject of assay [6] is HCT116 cells. The assay is described as follows: Inhibition of KRas-mediated phosphorylation of ERK (Cisbio HTRF pERK), HCT116 cells. The settings on record: Homo sapiens; for inhibition at 0.1 µM: HCT-116, single point at 100 nM, 3 hrs compound incubation. It counts as cell-based.
Assay [7] has as its target KRas G12R (Homo sapiens, UniProt P01116, G12R). Description: biochemical. The following applies: Binding to KRas (IC50 nM) G12R, TR-FRET displacement, KRas G12R.
Assay [8] relates to H727 cells. The assay is described as follows: Inhibition of KRas-mediated phosphorylation of ERK (Cisbio HTRF pERK), H727 cells. The assay is classed as cell-based. The settings on record: Homo sapiens, NCI-H727, 3 h, 3 hr compound incubation, Cisbio pERK HTRF.
The test system of assay [9] is H358 cells. The assay is described as follows: Inhibition of KRas-mediated phosphorylation of ERK (Cisbio HTRF pERK), H358 cells. The assay is classed as cell-based. The following applies: Homo sapiens; for inhibition at 0.1 µM: NCI-H358, single point at 100 nM, 3 hrs compound incubation.

Chain of KRas G12D (P01116 1-169 isoform P01116-2 G12D): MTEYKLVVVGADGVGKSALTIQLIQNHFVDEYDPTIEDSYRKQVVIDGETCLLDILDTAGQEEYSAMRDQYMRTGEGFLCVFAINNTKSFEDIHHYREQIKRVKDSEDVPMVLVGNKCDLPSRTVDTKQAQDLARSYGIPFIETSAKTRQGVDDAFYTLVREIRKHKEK
Chain of KRas G12R (P01116 1-169 isoform P01116-2 G12R): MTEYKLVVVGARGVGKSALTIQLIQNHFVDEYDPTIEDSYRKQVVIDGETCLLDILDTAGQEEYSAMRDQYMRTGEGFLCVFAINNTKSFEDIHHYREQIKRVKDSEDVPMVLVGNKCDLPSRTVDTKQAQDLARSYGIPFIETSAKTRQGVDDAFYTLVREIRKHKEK
Chain of KRas G12V (P01116 1-169 isoform P01116-2 G12V): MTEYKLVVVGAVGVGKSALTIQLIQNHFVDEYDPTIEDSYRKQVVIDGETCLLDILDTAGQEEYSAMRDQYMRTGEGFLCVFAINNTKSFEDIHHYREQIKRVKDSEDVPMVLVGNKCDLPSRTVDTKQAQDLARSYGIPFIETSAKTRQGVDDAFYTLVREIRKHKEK

Regarding `CCc1c(F)ccc2cc(O)cc(N3CCc4c(nc(OC[C@@]56CCCN5C[C@H](F)C6)nc4N4CCCn5nc(CCCC(=O)N(C)C)cc5C4)C3)c12` [Example 316, 4-(5-(7-(8-ethyl-7-fluoro-3-hydroxynaphthalen-1-yl)-2-(((2R,7aS)-2-fluorohexahydro-1H-pyrrolizin-7a-yl)methoxy)-5,6,7,8-tetrahydropyrido[3,4-d]pyrimidin-4-yl)-5,6,7,8-tetrahydro-4H-pyrazolo[1,5-a][1,4]diazepin-2-yl)-N,N-dimethylbutanamide], the IC50 in assay [1] is 6 nM; in assay [2], 5 nM; in assay [3] (A549, 3 h, 3 hr compound incubation, Cisbio pERK HTRF), 1390 nM; in assay [4] (NCI-H460, 3 h, 3 hr compound incubation, Cisbio pERK HTRF) it was 1770 nM; in assay [5] it was 879 nM; in assay [6] (HCT-116, 3 h, 3 hr compound incubation, Cisbio pERK HTRF), 3140 nM. The IC50 in assay [7] came to 6 nM; in assay [8] it was 687 nM; in [9] (NCI-H358, 3 h, 3 hr compound incubation, Cisbio pERK HTRF), 536 nM. Further, the inhibition at 0.1 µM in [3] was -4%; in assay [4], -20%; in assay [6], -2%; in assay [9], -22%.

As for `CCc1c(F)ccc2cc(O)cc(N3CCc4c(nc(OC[C@@]56CCCN5C[C@H](F)C6)nc4N4CCCn5nc(N(C)S(=O)(=O)C(C)C)cc5C4)C3)c12` [Example 321, N-(5-(7-(8-ethyl-7-fluoro-3-hydroxynaphthalen-1-yl)-2-(((2R,7aS)-2-fluorohexahydro-1H-pyrrolizin-7a-yl)methoxy)-5,6,7,8-tetrahydropyrido[3,4-d]pyrimidin-4-yl)-5,6,7,8-tetrahydro-4H-pyrazolo[1,5-a][1,4]diazepin-2-yl)-N-methylpropane-2-sulfonamide], the IC50 in [1] turned out to be 69 nM; in assay [2] it was 171 nM; in [5], 1900 nM; in assay [7], 146 nM; in assay [8], 1920 nM. For the same compound, the inhibition at 0.1 µM in assay [3] was found to be 14%; in [4], 16%; in assay [6], 5%; in assay [9], 7%.

For `CCc1c(F)ccc2cc(O)cc(N3CCc4c(nc(OC[C@@]56CCCN5C[C@H](F)C6)nc4N4CCCn5nc(CNS(=O)(=O)NC)cc5C4)C3)c12` [Example 324, 7-(8-ethyl-7-fluoro-3-hydroxy-1-naphthyl)-2-(((2R,7aS)-2-fluorotetrahydro-1H-pyrrolizin-7a(5H)-yl)methoxy)-4-(2-((methylsulfamoyl)amino)methyl-7,8-dihydro-4H-pyrazolo[1,5-a][1,4]diazepin-5(6H)-yl)-6,8-dihydro-5H-pyrido[3,4-d]pyrimidine], the IC50 in assay [1] worked out at 2 nM; in assay [2], 6 nM; in [5], 830 nM; in assay [7], 4 nM; in assay [8], 1180 nM. Moreover, the inhibition at 0.1 µM is 11% in assay [3], 21% in [4], -1% in [6] and 4% in [9].

Regarding `CCc1c(F)ccc2cc(O)cc(N3CCc4c(nc(OC[C@@]56CCCN5C[C@H](F)C6)nc4N4CCCn5nc(N(C)S(C)(=O)=O)cc5C4)C3)c12` [Example 334, N-(5-(7-(8-ethyl-7-fluoro-3-hydroxynaphthalen-1-yl)-2-(((2R,7aS)-2-fluorohexahydro-1H-pyrrolizin-7a-yl)methoxy)-5,6,7,8-tetrahydropyrido[3,4-d]pyrimidin-4-yl)-5,6,7,8-tetrahydro-4H-pyrazolo[1,5-a][1,4]diazepin-2-yl)-N-methylmethanesulfonamide], the IC50 in [1] was found to be 12 nM; in assay [2], 50 nM; in assay [5], 999 nM; in assay [7], 43 nM; in assay [8], 1690 nM. Further, the inhibition at 0.1 µM in [3] was 12%; in assay [4], -1%; in assay [6], 12%; in assay [9], 2%.

As to `CCc1c(F)ccc2cc(O)cc(N3CCc4c(nc(OC[C@@]56CCCN5C[C@H](F)C6)nc4N4CCCn5nc(N(C)C(=O)C(C)C)cc5C4)C3)c12` [Example 335, N-(5-(7-(8-ethyl-7-fluoro-3-hydroxynaphthalen-1-yl)-2-(((2R,7aS)-2-fluorohexahydro-1H-pyrrolizin-7a-yl)methoxy)-5,6,7,8-tetrahydropyrido[3,4-d]pyrimidin-4-yl)-5,6,7,8-tetrahydro-4H-pyrazolo[1,5-a][1,4]diazepin-2-yl)-N-methylisobutyramide], the IC50 in assay [1] worked out at 29 nM; in assay [2], 44 nM; in assay [5], 779 nM; in assay [7], 32 nM; in assay [8], 656 nM. Moreover, the inhibition at 0.1 µM in assay [3] came to 13%; in assay [4], 10%; in assay [6] it was 15%; in assay [9], 0%.

Consider `CCc1c(F)ccc2cc(O)cc(N3CCc4c(nc(OC[C@@]56CCCN5C[C@H](F)C6)nc4N4CCCn5nc(CN(C)S(=O)(=O)N(C)C)cc5C4)C3)c12` [Example 343, 7-(8-ethyl-7-fluoro-3-hydroxy-1-naphthyl)-2-(((2R,7aS)-2-fluorotetrahydro-1H-pyrrolizin-7a(5H)-yl)methoxy)-4-(2-((dimethylsulfamoyl)methylamino)methyl-7,8-dihydro-4H-pyrazolo[1,5-a][1,4]diazepin-5(6H)-yl)-6,8-dihydro-5H-pyrido[3,4-d]pyrimidine], for which the IC50 in [1] was 8 nM; in assay [2], 21 nM; in [5] it was 445 nM; in assay [7], 18 nM; in assay [8] it was 335 nM. Moreover, the inhibition at 0.1 µM in [3] is 4%; in [4] it was 7%; in [6] it was -2%; in assay [9] it was -13%.

As to `CCc1c(F)ccc2cc(O)cc(N3CCc4c(nc(OC[C@@]56CCCN5C[C@H](F)C6)nc4N4CCCCC(CC(=O)NC)C4)C3)c12` (stereo partly drawn) [Example 346, 2-(1-(7-(8-ethyl-7-fluoro-3-hydroxynaphthalen-1-yl)-2-(((2R,7aS)-2-fluorohexahydro-1H-pyrrolizin-7a-yl)methoxy)-5,6,7,8-tetrahydropyrido[3,4-d]pyrimidin-4-yl)azepan-3-yl)-N-methylacetamide], the IC50 in assay [1] was 6 nM; in assay [2] it was 4 nM; in assay [5], 1220 nM; in [7], less than 2 nM; in assay [8], 822 nM. Further, the inhibition at 0.1 µM in [3] amounted to 19%; in assay [4], 9%; in [6], 7%; in assay [9], 11%.

As to `CCc1c(F)ccc2cc(O)cc(N3CCc4c(nc(OC[C@@]56CCCN5C[C@H](F)C6)nc4N4CCCCC(CC(N)=O)C4)C3)c12` (stereo partly drawn) [Example 347, 2-(1-(7-(8-ethyl-7-fluoro-3-hydroxynaphthalen-1-yl)-2-(((2R,7aS)-2-fluorohexahydro-1H-pyrrolizin-7a-yl)methoxy)-5,6,7,8-tetrahydropyrido[3,4-d]pyrimidin-4-yl)azepan-3-yl)acetamide], the IC50 in [1] amounted to 7 nM; in assay [2] it was 2 nM; in assay [5], 690 nM; in assay [7] it was 2 nM; in [8], 541 nM. The inhibition at 0.1 µM is 28% in assay [3], 21% in assay [4], -14% in assay [6] and 5% in assay [9].

Turning to `CCc1c(F)ccc2cc(O)cc(N3CCc4c(nc(OC[C@@]56CCCN5C[C@H](F)C6)nc4N4CCCCC(P(C)(C)=O)C4)C3)c12` (stereo partly drawn) [Example 351, (1-(7-(8-ethyl-7-fluoro-3-hydroxynaphthalen-1-yl)-2-(((2R,7aS)-2-fluorotetrahydro-1H-pyrrolizin-7a(5H)-yl)methoxy)-5,6,7,8-tetrahydropyrido[3,4-d]pyrimidin-4-yl)azepan-3-yl)dimethylphosphine oxide], the IC50 in assay [1] was 12 nM; in assay [2] it was 6 nM; in [5], 3660 nM; in assay [7] it was 4 nM; in assay [8], 1060 nM. For the same compound, the inhibition at 0.1 µM was 11% in assay [3], 1% in [4], 5% in [6] and -7% in [9].

One may read the IC50 as the concentration that gives 50% inhibition. A word on the inhibition: it is the relative decrease from the control value, in per cent.

Source of the values: patent US20250368649A1, “TETRAHYDROPYRIDOPYRIMIDINE PAN-KRAS INHIBITORS” (Mirati Therapeutics, Inc., priority 2022, published 2025).
